Earlier results on 3 compounds are cited in patent publication US6013636A, “Anthelmintic macrocyclic lactone compositions” (Ashmont Holdings Limited, priority 1995, dated 2000).

The conditions of series [1]: sesame oil, soya bean oil and corn oil.

Take `CO[C@H]1C[C@H](O[C@H]2[C@H](C)O[C@@H](O[C@@H]3/C(C)=C/C[C@@H]4C[C@@H](C[C@]5(C=C[C@H](C)[C@@H](C6CCCCC6)O5)O4)OC(=O)[C@@H]4C=C(C)[C@@H](O)[C@H]5OC/C(=C\C=C\[C@@H]3C)[C@]54O)C[C@@H]2OC)O[C@@H](C)[C@@H]1O` [doramectin]: the Stability in water result is “oxidise and break down in water”. The Solubility in oils entry in series [1] is listed as “sparingly soluble”.

With `CO/N=C1\C[C@]2(C[C@@H]3C[C@@H](C/C=C(\C)C[C@@H](C)/C=C/C=C4\CO[C@@H]5[C@H](O)C(C)=C[C@@H](C(=O)O3)[C@]45O)O2)O[C@H](/C(C)=C/C(C)C)[C@H]1C` [moxidectin], the Stability in water entry was “oxidise and break down in water”. For the same compound, the Solubility in oils entry in series [1] is reported as “sparingly soluble”.

Take ivermectin: the Stability in water result is “oxidise and break down in water”. Moreover, the Solubility in oils result in series [1] is “sparingly soluble”.
